Experimental data taken from patent EP4678629A1, “IONIZABLE LIPID MOLECULE, PREPARATION METHOD THEREFOR AND USE THEREOF” (Maxirna (Shanghai) Pharmaceutical Co., Ltd., priority 2023, dated 2024).

What was measured:
[1] = In vitro transfection of cells with eGFP-mRNA lipid nanoparticle (LNP preparation), fluorescence imaging and flow cytometry; assay type: cell-based, mouse; details: mouse, dc2.4 cells, 200 ng of mRNA per well, after 24 hours; read-out: Cell viability, %
In short: (§1)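 Mouse bone marrow-derived DC2.4 dendritic cells seeded at 2 × 10^5 cells/well in DMEM with 10% FBS, transfected with eGFP-mRNA LNPs the next day at 37 °C, 5% CO2. After 24 hours, viability, eGFP-positive rate and mean fluorescence intensity read by fluorescence imaging and flow cytometry.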

DC2.4 cells = assay: as above; assay type: cell-based, mouse; details: DC2.4 cells, 200 ng of mRNA per well, after 24 hours; for Positive rate, %: eGFP positivity rate
In short: as §1

[2] = Encapsulation efficiency of the lipid nanoparticle (eGFP mRNA) by Ribogreen method; assay type: physicochemical; details: LNP encapsulating eGFP mRNA, ionizable lipid/DOPE/cholesterol/DMG-PEG2000 50/10/48.25/1.25 mol%, N/P 12
In short: (§2)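 LNPs were made by microfluidic mixing of ionizable lipid/DOPE/cholesterol/DMG-PEG2000 (50/10/48.25/1.25 mol%) in ethanol with eGFP mRNA in 20 mM citrate pH 6.1, N/P 12, then ultrafiltered into DPBS and 0.2 µm filtered. Size and PDI by DLS at 173° backscatter; encapsulation by Ribogreen.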

[3] = Size and polydispersity index (PDI) of the lipid nanoparticle by dynamic light scattering; assay type: physicochemical; details: LNP encapsulating eGFP mRNA, ionizable lipid/DOPE/cholesterol/DMG-PEG2000 50/10/48.25/1.25 mol%, N/P 12; for Particle size: in nm (unit assumed)
In short: as §2

mice = assay: In vivo transfection with Fluc-mRNA lipid nanoparticle (LNP preparation), live imaging of fluorescence intensity; details: 0.5 mg/kg; for fluorescence intensity: intravenous and intramuscular injection
Method: According to the method described in Example II , LNP lipid nanoparticles of Fluc-mRNA (Maxirna FLuc mRNA, 1 mg/mL), SM-102 (CAS number: 2089251-47-6, A.V.T (Shanghai) Pharmaceutical Co., Ltd.), and positive control 1 (US10195156B2, it was prepared according to the method described in the above embodiment, the main difference lay in replacing 2-((3-aminopropyl)amino)ethane-1-ol with 2-((2-aminoethyl)amino)ethane-1-ol, the structure was as shown in FIG. 1) were prepared respectively. Cholesterol (Chol), DSPC, DOPE, and DMG-PEG2000 were purchased from A.V.T (Shanghai) Pharmaceutical Co., Ltd. Mice were randomly selected, and the lipid nanoparticles were injected intravenously and intramuscularly (4 mice per group) at a dosage of 0.5 mg/kg. Tris and Fluc-mRNA were directly injected as controls. After 6 hours, 200 ul of 10 mg/ml D-luciferin potassium salt was respectively injected into each mouse through the tail vein. After 10 minutes, the mice were placed under a live imaging system to observe the total fluorescence intensity of each mouse and take photos for recording. After 24 hours, the mice were placed under the live imaging system to observe the total fluorescence intensity of each mouse and take photos for recording. Table 2: Preparation parameters of each LNP
(§3) LNP lipid nanoparticles of Fluc-mRNA were respectively prepared using the method described in Example II. Mice were randomly selected, and the lipid nanoparticles were injected intramuscularly (2 mice per group) at a dosage of 0.5 mg/kg. Tris was directly injected as a control. After 6 hours, 200 ul of 10 mg/ml D-luciferin potassium salt was respectively injected into each mouse through the tail vein. After 10 minutes, the mice were placed under a live imaging system to observe the total fluorescence intensity of each mouse and take photos for recording. After 24 hours, the mice were placed under the live imaging system to observe the total fluorescence intensity of each mouse and take photos for recording. Table 3: Preparation parameters of each LNP
as §3, with “II .” for “II.”, “(3” for “(2”, “4:” for “3:”

[4] = Fluc-mRNA LNP of Table 3 (DSPC), intramuscular, 6 and 24 hours
[5] = Fluc-mRNA LNP of Table 2 (DOPE), intramuscular
[6] = Fluc-mRNA LNP of Table 2 (DOPE), 6 and 24 hours
[7] = Fluc-mRNA LNP of Table 4 (DSPC), intramuscular, 6 and 24 hours

| Encapsulation rate, % [2] [%] | PDI [3] | Particle size [3] | Structure (SMILES) | viability at 24 h [1] [%] | Positive rate, % (DC2.4 cells) [%] | whole-body expression (mice; [4]) | fluorescence intensity, intramuscular injection administration (mice; [5]) | fluorescence intensity (mice; [6]) | expression in the chest and abdomen (mice; [5]) | Cell viability, % (DC2.4 cells; 1440 min) [%] | injection site (mice; [7]) | whole-body expression (mice; [7]) |
| --- | --- | --- | --- | --- | --- | --- | --- | --- | --- | --- | --- | --- |
| 96.32 | 0.18 | 59.34 | CCCCCCCCCCCOC(=O)CCCCCCCN(CCO)CCCN(CCCCCCCC(=O)OCCCCCCCCCCC)CCCCCCCC(=O)OCCCCCCCCCCC [Example 1, Diundecyl 8,8'-((3-((2-hydroxyethyl)(8-oxo-8-(undecyloxy)octyl)amino)propyl)azanediyl)dioctanoate] | 92 | 91.23 | even better than SM-102 | – | – | – | – | – | – |
| 90.99 | 0.17 | 97.96 | CCCCCCCCCCCOC(=O)CCCCCN(CCO)CCCN(CCCCCC(=O)OCCCCCCCCCCC)CCCCCC(=O)OCCCCCCCCCCC [Example 11, Diundecyl 6,6'-((3-((2-hydroxyethyl)(6-oxo-6-(undecyloxy)hexyl)amino)propyl)azanediyl)dihexanoate] | 84.3 | 95.68 | – | still maintain high fluorescence intensity | stronger than that of positive control 1 and comparable to SM-102 | – | – | – | – |
| 90.54 | 0.22 | 88.51 | CCCCCCCCCCCOC(=O)CCCN(CCO)CCCN(CCCC(=O)OCCCCCCCCCCC)CCCC(=O)OCCCCCCCCCCC [Example 12, Diundecyl 4,4'-((3-((2-hydroxyethyl)(4-oxo-4-(undecyloxy)butyl)amino)propyl)azanediyl)dibutanoate] | 81.2 | 97.78 | even better than SM-102 | still maintain high fluorescence intensity | stronger than that of positive control 1 and comparable to SM-102 | much lower than that of SM-102 | – | – | – |
| 94.22 | 0.09 | 96.38 | CCCCC/C=C\C/C=C\CCCCCCCCOC(=O)CCCN(CCCO)CCCCN(CCCC(=O)OCCCCCCCC/C=C\C/C=C\CCCCC)CCCC(=O)OCCCCCCCC/C=C\C/C=C\CCCCC [Example 89] | – | 92.26 | – | – | – | – | 94.0 | superior to those of positive control 1 and SM-102 | superior to those of positive control 1 and SM-102 |
